Experimental data taken from the NIST ThermoML archive (doi:10.1016/j.jct.2010.12.027).

Tests used:
[1] = xn = mol fraction of the nth substance listed; settings: 298.15 K, 101 kPa, Liquid; for viscosity: Capillary tube (Ostwald / Ubbelohde) method; for mass density: Vibrating tube method
[2] = 298.15 K, 101 kPa, Liquid; for viscosity: Capillary tube (Ostwald / Ubbelohde) method; for mass density: Vibrating tube method

CCCCCCn1cc[n+](C)c1.F[B-](F)(F)F [1-hexyl-3-methylimidazolium tetrafluoroborate] + CCCCN
[1], x1 = 1
Settings	mass density [kg/m3]	viscosity [mPa·s]
–	1146.7	195.37

CCCCCCn1cc[n+](C)c1.F[B-](F)(F)F [1-hexyl-3-methylimidazolium tetrafluoroborate] + C1CCOC1
[1]
Settings	mass density [kg/m3]	viscosity [mPa·s]
x1 = 0.0498	922.89	0.891
x1 = 0.1008	956.61	1.564
x1 = 0.203	1007.44	3.869
x1 = 0.2976	1041.06	7.658
x1 = 0.3461	1054.83	10.44
x1 = 0.3965	1067.37	13.93
x1 = 0.4457	1078.09	18.37
x1 = 0.5003	1088.63	24.9
x1 = 0.5548	1097.81	33.17
x1 = 0.6083	1106.02	42.68
x1 = 0.7025	1118.37	65.77
x1 = 0.7992	1129	97.79
x1 = 0.8925	1137.77	141.64
x1 = 1	1146.7	195.37

CCCCCCn1cc[n+](C)c1.F[B-](F)(F)F [1-hexyl-3-methylimidazolium tetrafluoroborate]
[2]
Settings	mass density [kg/m3]	viscosity [mPa·s]
–	1146.7	195.37

CCCCCCn1cc[n+](C)c1.F[B-](F)(F)F [1-hexyl-3-methylimidazolium tetrafluoroborate] + CCOC(C)=O
[1]
Settings	mass density [kg/m3]	viscosity [mPa·s]
x1 = 0.0498	925.56	0.738
x1 = 0.1	952.69	1.188
x1 = 0.2027	997.78	2.674
x1 = 0.302	1031.52	5.221
x1 = 0.3475	1044.35	6.846
x1 = 0.3983	1057.37	9.328
x1 = 0.4488	1068.89	12.31
x1 = 0.501	1079.8	16.47
x1 = 0.5487	1088.62	21.49
x1 = 0.6022	1097.8	28.48
x1 = 0.7075	1113.73	48.11
x1 = 0.8066	1126.46	80.43
x1 = 0.8908	1135.69	119.88
x1 = 1	1146.7	195.37

CCCCN [1-butanamine] + CCCCCCn1cc[n+](C)c1.F[B-](F)(F)F
[1]
Settings	mass density [kg/m3]	viscosity [mPa·s]
x2 = 0	732.88	0.476
x2 = 0.0492	778.02	0.889
x2 = 0.0994	809.01	1.433
x2 = 0.1997	888.25	3.137
x2 = 0.3002	943.91	6.183
x2 = 0.3525	968.66	8.532
x2 = 0.4013	989.49	11.16
x2 = 0.4492	1008.25	14.68
x2 = 0.5037	1027.64	19.56
x2 = 0.5524	1043.6	25.39
x2 = 0.6009	1058.22	32.05
x2 = 0.7036	1085.8	53.63
x2 = 0.7873	1105.23	76.62
x2 = 0.8787	1124.35	117.48

CCCCN [1-butanamine]
[2]
Settings	mass density [kg/m3]	viscosity [mPa·s]
–	732.88	0.476

CCOC(C)=O [ethyl acetate] + CCCCCCn1cc[n+](C)c1.F[B-](F)(F)F
[1], x2 = 0
Settings	mass density [kg/m3]	viscosity [mPa·s]
–	894.48	0.437

CCC(C)=O [butanone] + CCCCCCn1cc[n+](C)c1.F[B-](F)(F)F
[1], x2 = 0
Settings	mass density [kg/m3]	viscosity [mPa·s]
–	799.87	0.388

CCCCCCn1cc[n+](C)c1.F[B-](F)(F)F [1-hexyl-3-methylimidazolium tetrafluoroborate] + CCC(C)=O
[1]
Settings	mass density [kg/m3]	viscosity [mPa·s]
x1 = 0.0492	845.71	0.6
x1 = 0.0988	889.12	0.914
x1 = 0.2011	946.15	2.059
x1 = 0.2989	991.57	4.063
x1 = 0.3482	1010.53	5.578
x1 = 0.3972	1027.28	7.507
x1 = 0.4605	1046.8	11.08
x1 = 0.4981	1057.05	13.67
x1 = 0.55	1070.3	18.57
x1 = 0.6057	1082.75	24.46
x1 = 0.7054	1102.84	43.38
x1 = 0.7955	1119.38	69.4
x1 = 0.8931	1132.37	110.34
x1 = 1	1146.7	195.37

C1CCOC1 [tetrahydrofuran]
[2]
Settings	mass density [kg/m3]	viscosity [mPa·s]
–	882.13	0.475

CCC(C)=O [butanone]
[2]
Settings	mass density [kg/m3]	viscosity [mPa·s]
–	799.87	0.388

CCOC(C)=O [ethyl acetate]
[2]
Settings	mass density [kg/m3]	viscosity [mPa·s]
–	894.48	0.437

C1CCOC1 [tetrahydrofuran] + CCCCCCn1cc[n+](C)c1.F[B-](F)(F)F
[1], x2 = 0
Settings	mass density [kg/m3]	viscosity [mPa·s]
–	882.13	0.475
